# From patent US20210275480A1, “COMPOSITIONS AND METHODS FOR THE REDUCTION OR TREATMENT OF FIBROSIS” (AXCELLA HEALTH INC., priority 2018, published 2021)
# Tested on: FATZO mice (NASH)
# Experiment: FATZO mouse western diet + fructose NASH model (Example 6): body and liver weight, liver histology, NAS, fibrosis, Sirius Red
# Type: in vivo
# Conditions: WDF-fed FATZO mice
# Excerpt: In one example, the effects of […] and related amino acid compositions in the obesity, metabolism-driven non-alcoholic steatohepatitis (NASH) in FATZO mouse model was examined.
# NASH was induced in 60 male FATZO mice by a western diet (Research Diet #D12079B; fat 40% kcal, protein 17% kcal, carbohydrate 43% kcal) supplemented with 5% fructose in the drinking water (WDF) during a 16 week induction phase. Diets and water were available ad libitum. Littermate control male FATZO mice fed with a control diet (n=6, Purina #5008; fat 17% kcal, protein 27% kcal, carbohydrate 56% kcal) and sterile water were set up for control purpose. Mice were housed in plastic cages with microisolator. Sterilized bedding was replaced once a week. Mice were housed three per cage and maintained on a twelve hour light cycle throughout study duration. Room temperature was monitored daily and maintained at 22-25° C. Body weight was recorded every week during the induction phase.
# Following 16 weeks diet induction, 6 mice remained on control diet (group 1, Control) while 60 induced mice were randomized on body weight and plasma glucose (fed) for assignment to the following treatments. FATZO mice were administered with test articles starting at 16 weeks post western diet NASH induction for 4 weeks. Test articles were administered by oral gavage. Animals were euthanized at 20 weeks post western diet NASH induction, and tissues were harvested for analysis.
# […], […]+G, LRQNAC, and OCA (Advanced ChemBlocks, Inc.), incipient, and water for irrigation were provided by Axcella Health, Inc. 0.5% Methylcellulose was provided by CrownBio, Inc. Dosing solutions were prepared according to Appendix 1. […] Obeticholic acid (OCA) was suspended in 0.5% methylcellulose in water for irrigation. All test articles were stored refrigerated. TA compounds were provided in frozen powder form by the sponsor. Dosing was continued for 4 weeks.
# Leucine dosages of […]+G and LRQNAC were matched to that of […].
# […], […]+G, LRQNAC, OCA and Vehicle were administered by oral gavage at a volume of 10 mL/kg throughout the study. Dosages were calculated by daily body weight. […], […]+G, LRQNAC, and Vehicle were administered twice per day (BID), while OCA was administered once a day (QD) in the morning. Mice receiving OCA once per day (QD), and one vehicle QD. Doses were administered by oral gavage at 0700 and 1800 by oral gavage for 4 weeks.
# The viability, clinical signs and behavior were monitored daily. Body weight was recorded daily during the dosing period. Blood samples were collected weekly in the AM (0700) via tail clip for glucose measurement (StatStrip glucometer).
# Animals were anesthetized with CO2 inhalation and exsanguinated via cardiac puncture for euthanasia. Terminal blood samples (K2EDTA) were obtained by cardiac puncture in anesthetized animals at termination. Samples were provided frozen to Axcella Health. Organ weights (total liver, gonadal fat pads) were recorded. Pancreas, and small intestine and gonadal fat pads were fixed in 10% Buffered Formalin and prepared as directed in protocol. A section of small intestine, gonadal fat pad and liver were also snap frozen in liquid nitrogen and shipped to the sponsor.
# The liver tissues were fixed in Bouin's solution at 4° C. for 24 hours followed by baths of standard concentrations of alcohol then xylene to prepare the tissues for paraffin embedding. After being embedded in paraffin and cooled, five-micron sections were cut and stained for routine H&E and Picric Sirius Red. A section of both right and left lobes of the livers were frozen in OCT for analysis of lipid content with Oil-Red-) staining. The Aperio whole slide digital imaging system (Scan Scope CS, Vista, Calif.) was used for imaging. All slides were imaged at 20×. The scan time ranged from 1.5 minutes to a maximum time of 2.25 minutes. […]
# [1] = OCA oral gavage QD, 4 weeks, mean ± SEM
smiles,measurement,setting,value
"CC[C@H]1[C@@H](O)[C@@H]2[C@H](CC[C@]3(C)[C@@H]([C@H](C)CCC(=O)O)CC[C@@H]23)[C@@]2(C)CC[C@@H](O)C[C@@H]12 [OCA, 6α-ethyl-chenodeoxycholic acid]",Fibrosis (liver fibrosis score),[1],0.67 ± 0.167
same,Liver Pathology: Inflammation,[1],1.0 ± 0.0
same,Liver Pathology: NAS,[1],3.72 ± 0.147
same,Sirius Red (collagen staining),[1],1.59 ± 0.36
same,Liver Pathology: Ballooning,"OCA oral gavage QD, 4 weeks, score 0-2, mean ± SEM",0.94 ± 0.056
same,Liver Pathology: Steatosis,"OCA oral gavage QD, 4 weeks, score 0-3, mean ± SEM",1.78 ± 0.147
same,Body weight change compared to baseline,"4 weeks oral, LIVRQNAC 3000 mg/kg, LIVRQNAC+G 3885 mg/kg, LRQNAC 2469 mg/kg BID, OCA 30 mg/kg/day QD",−3.9±1.5%
same,Liver weight (% body weight),"4 weeks, LIVRQNAC 3000 mg/kg, LIVRQNAC+G 3885 mg/kg, LRQNAC 2469 mg/kg, OCA 30 mg/kg/day",6.81±0.2 % body weight
